For experiment [1], the system named is F. lateritium and E. armeniacae. To be noted: reported by Carter et al.; cited from earlier work.
Another experiment has as its system E. lata. Put plainly: Grapevine bioassays in the presence of benomyl: E. lata colonization. The experiment is classed as cell-based, Eutypa lata. As to conditions: 26° C., 10 days; for E. lata colonization: treatment E. lata alone. As to the method: Bioassays were also completed to evaluate the tolerance of the BR F. lateritium strain and E. lata to benomyl when applied to grapevine segments. Benomyl concentrations tested included 0, 10, 100 and 1000 μg/ml at 50 μl aliquots per segment. Bioassays were inoculated with 20 μl aliquots of broth from 4 to 5 day old shake flask cultures of BR F. lateritium and E. lata. The F. lateritium shake flask cultures yielded approximately 4.5×10^5 cells/ml. Segments were inoculated first with benomyl and then with E. lata and BR F. lateritium. All inoculations were completed within one hour in a laminar flow hood. These bioassays were incubated at 26° C. for 10 days.
After incubation, segments were removed from the water agar, split in half and surface disinfected for ½ hour in a 2.5% sodium hypochlorite solution. The split segments were plated on PDA and monitored for E. lata presence after 5 days. All bioassays were performed in triplicate. Positive and negative controls were performed for each bioassay. Mean percent infection levels and standard errors about the mean were calculated for each treatment.

Here are results for 1 molecule from patent US20020159980A1, “Benomyl tolerant fusarium lateritium and uses thereof” (priority 2001, published 2002).

In the case of `CCCCNC(=O)n1c(NC(=O)OC)nc2ccccc21` [benomyl, 1-(butylcarbomyl)-2-benzimidazole carbamate], the “differential sensitivities of F. lateritium and E. armeniacae to benomyl” value in experiment [1] is “approximately 10 fold”. In the experiment on E. lata (grapevine segments), the “benomyl concentration applied to the segments at which E. lata did not colonize” value is “exceeded 100 μg/ml”. Also, the figures for the E. lata colonization with E. lata (benomyl 10 μg/ml), in the experiment on E. lata (benomyl 100 μg/ml) and in the experiment with E. lata (benomyl 1000 μg/ml) were 100%, 90% and 0%, respectively.
